Measurements taken from patent publication EP1079840B1, “SYNERGISTIC COMPOSITION OF INULIN AND AN ANTI-CANCER DRUG FOR USE IN THE TREATMENT OF CANCER” (Tiense Suikerraffinaderij N.V. (Raffinerie Tirlemontoise …, priority 1998, dated 1999).

System: ascitic form of a transplantable mouse liver tumor (TLT)
Test: Survival (increase of life span) of mice bearing the intraperitoneally transplanted ascitic TLT tumor
Assay type: in vivo, NMRI male mice
Settings: for therapeutic effect (character of chemotherapy potentiating effect): cytotoxic drug combined with dietary FOS or inulin
Description: Viable, neoplastic cells (10^6) from the ascitic form of a transplantable mouse liver tumor (TLT) (Taper, 1966 and Cappucino, 1966) were intraperitoneally transplanted into 12 per group young adult NMRI male mice weighing about 30 g, supplied by "Animalerie Facultaire", UCL, Brussels. Mice of the experimental groups were fed with a basal diet supplemented with 15 % FOS or inulin starting 7 days before tumor transplantation up to the end of the experiment. Control animals received the basal diet for experimental animals AO4 furnished by UAR, Villemoisson sur Orge, France, and water ad libitum.
A single, subtherapeutic dose of cytotoxic drugs was intraperitoneally injected 48 hours after intraperitoneal TLT tumor transplantation at following doses: endoxan 80 mg/kg; adriamycin 0.1 mg/kg; oncovin 0.5 mg/kg and 5-fluorouracil 40 mg/kg.
The criteria for the evaluation of results were the mortality rates expressed by mean survival time (MST) and the percentage of increase of life span (ILS) in experimental groups compared with the controls, calculated according to the NCI instructions (Geron et al., 1972). The results of each experiment were confirmed by another experiment performed at another time and were cumulatively calculated (as presented in Table 1). The results concerning the survival rates of mice bearing the ascitic form of a TLT tumor, observed in 2 separately performed experiments on each type of anti-cancer drug (12 mice per group), are cumulatively presented in Table 1 below.
In a further experiment, carried out in a similar manner as the previous experiment, the effects were examined of a composition according to the invention, containing a combination of the anti-metabolite anti-cancer drug methotrexate and inulin or FOS, in comparison with the effects of the single components. The effects were evaluated via the survival criteria of N.M.RI mice bearing ascitic TLT tumors, treated with a single i.p. dose of 20 mg/kg methotrexate (10 investigated mice in each group) and the results are presented in Table 2 below.

[1] = increase of life span vs own untreated control group, 15 % FOS or inulin in diet from 7 days before transplantation, single i.p. dose 48 hours after transplantation: endoxan 80 mg/kg, adriamycin 0.1 mg/kg, oncovin 0.5 mg/kg, 5-fluorouracil 40 mg/kg, 2 experiments cumulated

| SMILES | ILS (%) (Table 2, methotrexate single i.p. dose of 20 mg/kg, dietary FOS or inulin, 10 mice in each group) | therapeutic effect (character of chemotherapy potentiating effect) | ILS (%) [1] |
| --- | --- | --- | --- |
| CN(Cc1cnc2nc(N)nc(N)c2n1)c1ccc(C(=O)N[C@@H](CCC(=O)O)C(=O)O)cc1 [methotrexate] | 2% | – | – |
| O=P1(N(CCCl)CCCl)NCCCO1 (stereo not drawn) [Endoxan, cyclophosphamide] | – | additive | 0% |
| CC[C@]1(O)C[C@H]2CN(CCc3c([nH]c4ccccc34)[C@@](C(=O)OC)(c3cc4c(cc3OC)N(C=O)[C@H]3[C@@](O)(C(=O)OC)[C@H](OC(C)=O)[C@]5(CC)C=CCN6CC[C@]43[C@@H]65)C2)C1 [Oncovin, vincristine sulphate] | – | additive | 33.33% |
| COc1cccc2c1C(=O)c1c(O)c3c(c(O)c1C2=O)C[C@@](O)(C(=O)CO)C[C@@H]3O[C@H]1C[C@H](N)[C@H](O)[C@H](C)O1 [Adriamycin, adriamycin] | – | additive | 14.7% |
| O=c1[nH]cc(F)c(=O)[nH]1 [5-Fluorouracil, 5-fluorouracil] | – | synergistic | 18.75% |
